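48-hour exposure; five concentrations; linearly interpolated endpoints. GI50 is the concentration that inhibits growth by half. TGI is the concentration that stops growth completely.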 Starred links: 1 amine or outer side, 2 acyl side, 3 side chain; linkers in the order of their positions; H or OH if unused. Non-standard residues stand in square brackets, D forms with d. Residues, ends and D or L forms follow the SMILES beside them. *: point of attachment. X14 = C/C=C/CC(C)C(O)[C@H](N[*:1])C(=O)[*:2]; Decanoyl = CCCCCCCCCC(=O)*; Leu(ol) = CC(C)C[C@H](N)CO; Iva = CC[C@](C)(N)C(=O)O; Aib = CC(C)(N)C(=O)O
What was measured:
Assay in all cases: growth of human tumour cells (NCI), 48 h
[1] = test system: 786-0 renal
[2] = test system: A498 renal
[3] = test system: A549 NSCLC
[4] = test system: ACHN renal
[5] = test system: BT-549 breast
[6] = test system: CAKI-1 renal
[7] = test system: CCRF-CEM leukemia
[8] = test system: COLO 205 colon
[9] = test system: DU-145 prostate
[10] = test system: EKVX NSCLC
[11] = test system: HCC-2998 colon
[12] = test system: HCT-116 colon
[13] = test system: HCT-15 colon
[14] = test system: HL-60(TB) leukemia
[15] = test system: HOP-92 NSCLC
[16] = test system: HS 578T breast
[17] = test system: HT29 colon
[18] = test system: IGROV1 ovarian
[19] = test system: K-562 leukemia
[20] = test system: KM12 colon
[21] = test system: LOX IMVI melanoma
[22] = test system: M14 melanoma
[23] = test system: MALME-3M melanoma
[24] = test system: MCF7 breast
[25] = test system: MDA-MB-231 breast
[26] = test system: MDA-MB-435
[27] = test system: MOLT-4 leukemia
[28] = test system: NCI-H226 lung
[29] = test system: NCI-H460 lung
[30] = test system: NCI-H522 lung
[31] = test system: NCI/ADR-RES ovarian
[32] = test system: OVCAR-3 ovarian
[33] = test system: OVCAR-4 ovarian
[34] = test system: OVCAR-5 ovarian
[35] = test system: OVCAR-8 ovarian
[36] = test system: PC-3 prostate
[37] = test system: RPMI-8226 leukemia
[38] = test system: RXF 393 renal
[39] = test system: SF-268 CNS
[40] = test system: SF-295 CNS
[41] = test system: SF-539 CNS
[42] = test system: SK-MEL-2 melanoma
[43] = test system: SK-MEL-28 melanoma
[44] = test system: SK-MEL-5 melanoma
[45] = test system: SK-OV-3 ovarian
[46] = test system: SN12C renal
[47] = test system: SNB-19 CNS
[48] = test system: SNB-75 CNS
[49] = test system: SR leukemia
[50] = test system: SW-620 colon
[51] = test system: TK-10 renal
[52] = test system: U251 CNS
[53] = test system: UACC-257 melanoma
[54] = test system: UACC-62 melanoma
[55] = test system: UO-31 renal

## C/C=C/CC(C)C(O)[C@H](NC(=O)[C@@H]1CCCN1C(=O)C(C)(C)NC(=O)CCCCCCCCC)C(=O)N[C@@](C)(CC)C(=O)N[C@@H](CCC(N)=O)C(=O)N[C@H](CCC(N)=O)C(=O)NC(C)(C)C(=O)N[C@@](C)(CC)C(=O)N[C@@H](CCC(N)=O)C(=O)N[C@H](CC(C)C)C(=O)N[C@H](CO)CC(C)C (stereo partly drawn) (Decanoyl-[Aib]P[X14][Iva]Q[dQ][Aib][Iva]Q[dL][Leu(ol)])
[1]
  GI50: 284 nM
  TGI: 1440 nM
[2]
  GI50: 242 nM
  TGI: 721 nM
[3]
  GI50: 95.6 nM
  TGI: 1160 nM
[4]
  GI50: 87.7 nM
  TGI: 1130 nM
[5]
  GI50: 304 nM
  TGI: 829 nM
[6]
  GI50: 206 nM
  TGI: 659 nM
[7]
  GI50: 152 nM
  TGI: 1180 nM
[8]
  GI50: 49 nM
  TGI: 187 nM
[9]
  GI50: 318 nM
  TGI: 1530 nM
[10]
  GI50: 173 nM
  TGI: 1430 nM
[11]
  GI50: 107 nM
  TGI: 1600 nM
[12]
  GI50: 87 nM
  TGI: 1200 nM
[13]
  GI50: 297 nM
  TGI: 1270 nM
[14]
  GI50: 29.1 nM
  TGI: 114 nM
[15]
  TGI: 83.6 nM
[16]
  GI50: 297 nM
  TGI: 1720 nM
[17]
  GI50: 97.4 nM
  TGI: 1350 nM
[18]
  GI50: 406 nM
  TGI: 1750 nM
[19]
  GI50: 41.8 nM
  TGI: 1090 nM
[20]
  GI50: 75.2 nM
  TGI: 1170 nM
[21]
  GI50: 164 nM
  TGI: 697 nM
[22]
  GI50: 61.5 nM
  TGI: 1320 nM
[23]
  GI50: 30.9 nM
  TGI: 643 nM
[24]
  GI50: 59.4 nM
  TGI: 1160 nM
[25]
  GI50: 274 nM
  TGI: 990 nM
[26]
  GI50: 111 nM
  TGI: 1200 nM
[27]
  GI50: 259 nM
  TGI: 1140 nM
[28]
  GI50: 182 nM
  TGI: 1480 nM
[29]
  GI50: 94 nM
  TGI: 1150 nM
[30]
  GI50: 55 nM
  TGI: 720 nM
[31]
  GI50: 985 nM
  TGI: 2330 nM
[32]
  GI50: 41.7 nM
  TGI: 1310 nM
[33]
  GI50: 82.5 nM
  TGI: 1870 nM
[34]
  GI50: 208 nM
  TGI: 1290 nM
[35]
  GI50: 199 nM
  TGI: 1330 nM
[36]
  GI50: 52.7 nM
  TGI: 1050 nM
[37]
  GI50: 29.5 nM
  TGI: 140 nM
[38]
  GI50: 259 nM
  TGI: 1260 nM
[39]
  GI50: 281 nM
  TGI: 1360 nM
[40]
  GI50: 48.8 nM
  TGI: 754 nM
[41]
  GI50: 338 nM
  TGI: 1310 nM
[42]
  GI50: 60.4 nM
  TGI: 688 nM
[43]
  GI50: 62.7 nM
  TGI: 2000 nM
[44]
  GI50: 40.7 nM
  TGI: 200 nM
[45]
  GI50: 233 nM
  TGI: 873 nM
[46]
  GI50: 211 nM
  TGI: 1110 nM
[47]
  GI50: 134 nM
  TGI: 1350 nM
[48]
  GI50: 174 nM
  TGI: 803 nM
[49]
  GI50: 253 nM
  TGI: 943 nM
[50]
  GI50: 89.2 nM
  TGI: 1330 nM
[51]
  GI50: 67.5 nM
  TGI: 1530 nM
[52]
  GI50: 54.8 nM
  TGI: 1200 nM
[53]
  GI50: 62.1 nM
  TGI: 758 nM
[54]
  GI50: 103 nM
  TGI: 1470 nM
[55]
  GI50: 212 nM
  TGI: 1110 nM
